Earlier results in the CATMoS acute toxicity set (Mansouri et al. 2021).
Several values for one entry are separate records, joined by “and”; a condition that tells them apart may be missing. Identical values can stand only once.

Assay: rat acute oral toxicity
Conditions: in vivo

Structure (SMILES) | LD50
CC(CCc1ccc(O)cc1)NCCc1ccc(O)c(O)c1 (centres undefined) | 2300 mg/kg
Cc1ccccc1-c1nnc(NN)s1 | 120 mg/kg
C=C(C)C1CC=C(CO)CC1 (centres undefined) | 2100 mg/kg
CCCCCCCCOC(=O)/C=C\C(=O)OCCCCCCCC | 14200 mg/kg
[O-][n+]1cc[n+]([O-])c2ccccc21 | 500 mg/kg
CCCCCC/C=C/C1CC(=O)OC1=O (centres undefined) | 1100 mg/kg
CCN(CCCCOC(=O)c1ccc(OC)c(OC)c1)C(C)Cc1ccc(OC)cc1 (centres undefined) | 1540 mg/kg
CC(OC(C)c1ccccc1)c1ccccc1 (centres undefined) | 9800 mg/kg
O=C(O)CCC(=O)c1ccc(C2CCCCC2)c(Cl)c1 | 120 mg/kg and 300 mg/kg
C=C(C)C(=O)OCCC#N | 7330 mg/kg
CO[C@H]1[C@@H](O)C[C@H](O[C@H]2[C@@H](O)C[C@H](O[C@H]3[C@@H](O)C[C@H](O[C@H]4CC[C@@]5(C)[C@H](CC[C@@H]6[C@@H]5C[C@@H](O)[C@]5(C)[C@@H](C7=CC(=O)OC7)CC[C@]65O)C4)O[C@@H]3C)O[C@@H]2C)O[C@@H]1C | 8.3 mg/kg
c1ccc(C2(c3ccccc3)OCC(C3CCCCN3)O2)cc1 (centres undefined) | 310 mg/kg and 280 mg/kg
C=C(/C=C/C)C1=C(C)CCCC1(C)C | 2920 mg/kg
O=C(O)Cc1cc(O)ccc1Nc1c(Cl)cc(O)cc1Cl | 1000 mg/kg
CN(C)C(=O)NC1CCC2C3CCC(C3)C12 (centres undefined) | 1600 mg/kg
CC=CC(=O)OC(C=CC)OC(=O)C=CC (centres undefined) | 2590 mg/kg
CCCC/C=C\CCCCCCOC(C)=O | 13400 mg/kg
OC[C@@H](O)CN1CCN(c2ccccc2)CC1 | 887 mg/kg
Cc1cc(Cl)ccc1/N=C/N(C)C | 225 mg/kg
Cc1cc(N(C)C)nc(Cl)n1 | 1.25 mg/kg
COB(OC)OC | 6140 mg/kg
CCOP(=O)(OCC)SCSP(=O)(OCC)OCC | 12.8 mg/kg
C=CC(C)=O | 23.1 mg/kg

Structure (SMILES) | LD50
ClCC=CCCl | 89 mg/kg
Clc1ccc(C(Cl)(Cl)c2ccc(Cl)cc2)cc1 | 168 mg/kg
CC(CN1c2ccccc2Sc2ccc(S(=O)(=O)N(C)C)cc21)N(C)C (centres undefined) | 1320 mg/kg
C[C@H](CS)C(=O)N1CCC[C@H]1C(=O)O | 4240 mg/kg
Cc1ncc2cscc2c1O | 1500 mg/kg
CCN(CC)C(=S)S | 1000 mg/kg
CO[C@@H]1[C@@H](O[C@@H]2O[C@H](C)[C@@H](O[C@H]3C[C@@](C)(O)[C@@H](OC(=O)CC(C)C)[C@H](C)O3)[C@H](N(C)C)[C@H]2O)[C@@H](CC=O)C[C@@H](C)[C@@H](O)C=CC=CC[C@@H](C)OC(=O)C[C@H]1O | 6990 mg/kg
Cn1c2c(c3ccccc31)CCN(CCCN1CCN(c3ccccc3)CC1)C2=O | 650 mg/kg
CC(Cc1ccccc1)NN (centres undefined) | 34 mg/kg
Cc1ccc(S(=O)(=O)N=C=O)cc1 | 2230 mg/kg
C=C(C)C(=O)OCCOCCOCCOC(=O)C(=C)C | 10800 mg/kg
OC(COc1ccccc1)COc1ccccc1 | 1450 mg/kg
CCCCC(=O)CC | 2760 mg/kg
CCOP(=O)(OCC)ON1C(=O)c2cccc3cccc(c23)C1=O | 70 mg/kg
CCCCN(C=O)CCCC | 620 mg/kg
CN(C)c1c(Cl)c(Cl)c(Cl)c2nc(C(F)(F)F)[nH]c12 | 22 mg/kg
c1ccc(C2CN3CCSC3=N2)cc1 (centres undefined) | 180 mg/kg and 480 mg/kg
COC1=C(OC)C(=O)C(CCCCCCCCCCO)=C(C)C1=O | 10000 mg/kg
Cc1cccc(O)c1 | 242 mg/kg
OCCOCc1ccccc1 | 1190 mg/kg
CNC(=O)ON=C1CCCC1(C)[N+](=O)[O-] (centres undefined) | 4 mg/kg
Clc1cc(Cl)c(-c2c(Cl)c(Cl)c(-c3c(Cl)cc(Cl)c(Cl)c3Cl)c(Cl)c2Cl)cc1Cl | 16000 mg/kg
C=CCc1c(O)c(CN2CCN(CCO)CC2)cc2c(C)cc(=O)oc12 | 3160 mg/kg

Structure (SMILES) | LD50
Cc1ncc(COP(=O)(O)O)c(C=O)c1O | 5900 mg/kg
Clc1sc(Cl)c(Cl)c1Cl | 70 mg/kg
CN1C(C(=O)Nc2ccccn2)=C(OC(=O)C23CC4CC(CC(C4)C2)C3)c2sc(Cl)cc2S1(=O)=O | 100 mg/kg
COP(=S)(OC)SCCSC(C)C | 150 mg/kg
CC(C)COCCO | 400 mg/kg
c1ccc(C(N2CCOCC2)N2CCOCC2)cc1 | 5060 mg/kg
CC(CC(C#N)(c1ccccc1)C(C)C)N(C)C (centres undefined) | 250 mg/kg
ClC1=C(Cl)C2(Cl)C3C(Cl)C(Cl)CC3C1(Cl)C2(Cl)Cl (centres undefined) | 283 mg/kg
CC(=O)CC(C)(C)N(C)N=O | 2100 mg/kg
Cn1c2ccccc2c2cc(N)ccc21 | 347 mg/kg
C=C(OP(=O)(OC)OC)P(=O)(OC)OC | 287 mg/kg
OC1(c2ccc(Cl)c(Cl)c2)c2ccccc2C2=NCCN21 (centres undefined) | 353 mg/kg
C[Si](C)(C)CCC(=O)O | 3000 mg/kg
CCC(=O)Nc1ncc(Cl)s1 | 316 mg/kg
CC(C)CCCC(C)NN (centres undefined) | 108 mg/kg
C=CC(=O)NCC(OC)OC | 1200 mg/kg
CC[C@H](OC(C)=O)C(C[C@H](C)N(C)C)(c1ccccc1)c1ccccc1 | 29 mg/kg
C[C@@H]1CC=CC=CC=CC=C[C@H](O[C@@H]2O[C@H](C)[C@@H](O)[C@H](N)[C@@H]2O)C[C@@H]2O[C@](O)(C[C@@H](O)C[C@H]3O[C@@H]3C=CC(=O)O1)C[C@H](O)[C@H]2C(=O)O | 2730 mg/kg
NCCSSCCN | 896 mg/kg
COC1=CC(=O)OC(C=CC2=CCCC=C2)C1 (centres undefined) | 16000 mg/kg
COP(=S)(OC)OC1C2(C)CCC(C2)C1(C)C (centres undefined) | 250 mg/kg
CN(C)C(=O)N(C)N=O | 240 mg/kg
CC(C)N=C1SC(=NOC(=O)N(C)SC(Cl)(Cl)Cl)C(C)(C)S1 | 226 mg/kg
